Measurements taken from patent US8188135B2, “Compounds as cannabinoid receptor ligands” (priority 2008, dated 2012).
Read-outs that look alike come from different tables or passages of the source.

Columns and labels:
human CB2 receptors = target: T1, human CB2 receptors (Homo sapiens, UniProt P34972); assay: human CB2 radioligand binding assay ([3H]CP 55,940 competition); details: HEK293 membranes, 0.5 nM [3H]CP 55,940
T1 construct: expressed in transfected cells; host or cells: HEK293
Method in brief: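 Displacement of 0.5 nM [3H]CP 55,940 over 0.01 nM-10 μM test compound, measured on human CB2 membranes from stably transfected HEK293 cells. Incubation 90 min at 30 °C in Tris/EDTA/MgCl2/BSA, pH 7.4, then filter-bound radioactivity counted; 10 μM unlabeled CP 55,940 defined nonspecific binding.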

rat CB2 = target: T2, rat CB2 (Rattus norvegicus, UniProt Q9QZN9); assay: rat CB2 radioligand binding assay ([3H]CP 55,940 competition); design: expressed in transfected cells; host or cells: HEK293; details: HEK293 membranes, 0.5 nM [3H]CP 55,940
T2 sequence (Q9QZN9 1-360): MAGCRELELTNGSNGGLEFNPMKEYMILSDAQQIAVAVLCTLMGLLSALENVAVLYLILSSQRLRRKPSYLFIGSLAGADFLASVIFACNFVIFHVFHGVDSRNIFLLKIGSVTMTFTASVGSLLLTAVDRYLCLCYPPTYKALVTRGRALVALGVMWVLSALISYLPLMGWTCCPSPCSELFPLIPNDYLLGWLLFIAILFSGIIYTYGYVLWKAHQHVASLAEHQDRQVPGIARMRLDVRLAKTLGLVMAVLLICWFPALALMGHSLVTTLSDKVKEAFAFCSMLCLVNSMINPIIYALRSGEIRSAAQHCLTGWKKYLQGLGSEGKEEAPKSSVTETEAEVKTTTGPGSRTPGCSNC
Method in brief: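 Competition binding against 0.5 nM [3H]CP 55,940 (pH 7.4 buffer with 0.5 mg/mL BSA, 30 °C, 45 min), with displacers spanning 0.01 nM–10 μM at five concentrations. Receptor source: stably transfected HEK293 membranes, 20 μg/well. Nonspecific binding defined by 10 μM unlabeled CP 55,940; readout by filtration and counting.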

Rat CB1 = target: T3, Rat CB1 (Rattus norvegicus, UniProt P20272); assay: rat CB1 cyclase functional assay (HitHunter cAMP); format: cell-based; details: HEK cells, forskolin 37 μM
T3 construct: expressed in transfected cells; host or cells: HEK
Method: The cyclase functional assays were performed using the HitHunter™ cAMP assay kit from DiscoveRx (Fremont, Calif.) according to vendor's protocol. Briefly, HEK cells expressing CB2 or CB1 receptors (rat or human) were detached using cell dissociation buffer (Invitrogen, Carlsbad, Calif.), dispersed and placed in suspension at 10,000 cells per well in 96 well plates prior to the assay. Cell suspensions were incubated at 37° C. for 20 min with variable concentrations of test ligands and or 10 μM CP 55,940-positive control in the presence of a fixed concentration of forskolin (18 μM for rat CB2 and 37 μM for rat CB1) in Dulbescco's phosphate-buffered saline (Invitrogen, Carlsbad, Calif.) supplemented with bovine serum albumin (0.01% final concentration). The reactions were terminated by the addition of lysis buffer and the luminescence was detected following the procedure according to the manufacturer's instructions. EC50 values were calculated using sigmoidal dose-response curve fitting from Prism (GraphPad).

[1] = pharmacokinetic studies in rats; details: male, Sprague-Dawley, rat; for half-life / clearance: iv; for bioavailability: po
Method: Male Sprague-Dawley rats, weighing 250-400 g, were obtained from Charles Rivers Laboratories. Pharmacokinetic studies were conducted in three groups of rats; each group contained three animals. All groups were dosed with a solution formulation. The first group of three rats received an intravenous dose, administered under isoflurane anesthetic. The second group received an intraperitoneal dose and the third group received an oral dose, administered by gavage. Sequential blood samples were obtained from a tail vein of each animal for 8-24 hours after dosing. Plasma was separated by centrifugation and stored frozen until analysis.
Half life […] and plasma clearance values are based on intravenous administration (3 micromole/kg).
Half life (t1/2) and plasma clearance values are based on intravenous administration (3 micromole/kg).

[2] = read-out: Rat CB1 cyclase (EC50)

T1 sequence (P34972 whole entry): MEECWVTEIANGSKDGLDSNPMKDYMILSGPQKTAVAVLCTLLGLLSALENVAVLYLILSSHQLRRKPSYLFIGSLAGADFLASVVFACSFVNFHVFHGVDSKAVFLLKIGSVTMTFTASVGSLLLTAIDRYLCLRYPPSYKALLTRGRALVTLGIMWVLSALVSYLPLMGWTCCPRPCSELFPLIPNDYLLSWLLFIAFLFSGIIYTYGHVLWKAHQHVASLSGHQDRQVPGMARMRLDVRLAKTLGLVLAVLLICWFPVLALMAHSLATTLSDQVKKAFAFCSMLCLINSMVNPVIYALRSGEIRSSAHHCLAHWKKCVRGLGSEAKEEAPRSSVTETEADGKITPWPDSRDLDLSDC
T3 sequence (P20272 whole entry): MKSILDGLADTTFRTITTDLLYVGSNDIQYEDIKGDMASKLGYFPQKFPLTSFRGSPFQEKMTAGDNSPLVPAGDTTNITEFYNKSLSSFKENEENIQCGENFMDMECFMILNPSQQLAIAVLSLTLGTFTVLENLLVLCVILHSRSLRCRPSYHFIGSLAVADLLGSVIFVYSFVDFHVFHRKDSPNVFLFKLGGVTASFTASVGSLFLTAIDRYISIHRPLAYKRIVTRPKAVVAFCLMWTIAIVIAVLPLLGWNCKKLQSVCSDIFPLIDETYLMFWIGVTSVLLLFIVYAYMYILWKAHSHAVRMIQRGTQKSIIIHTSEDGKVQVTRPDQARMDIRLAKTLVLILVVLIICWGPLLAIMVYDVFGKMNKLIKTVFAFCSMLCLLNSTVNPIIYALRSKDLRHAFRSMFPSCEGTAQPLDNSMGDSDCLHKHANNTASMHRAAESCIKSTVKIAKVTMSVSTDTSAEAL

| SMILES | EC50 (Rat CB1; [2]) | Ki (rat CB2; rat CB2 (Ki, nM)) | Ki (human CB2 receptors; human CB2 (Ki, nM)) | half-life ([1]; in vivo, 3 micromole/kg) | clearance ([1]; in vivo, 3 micromole/kg) | bioavailability ([1]; in vivo, 10 micromole/kg) | also measured |
| --- | --- | --- | --- | --- | --- | --- | --- |
| CCCCn1cc(C(C)(C)C)o/c1=N\C(=O)c1cc(C(F)(F)F)ccc1OC[C@@H]1CCCN1C [Example 76, N-[(2Z)-3-butyl-5-tert-butyl-1,3-oxazol-2(3H)-ylidene]-2-{[(2S)-1-methylpyrrolidin-2-yl]methoxy}-5-(trifluoromethyl)benzamide] | 2030 nM |  |  |  |  |  | Ki (human CB2 receptors; read-out: human CB2 (Ki)): 176 nM; Ki (rat CB2; read-out: rat CB2 (Ki)): 243 nM |
| Cn1c(C(C)(C)C)c/c(=N\C(=O)c2cc(C(F)(F)F)ccc2OC[C@@H]2CCC(=O)N2)n1CC1CCC1 [Example 120, N-[(3E)-5-tert-butyl-2-(cyclobutylmethyl)-1-methyl-1,2-dihydro-3H-pyrazol-3-ylidene]-2-{[(2S)-5-oxopyrrolidin-2-yl]methoxy}-5-(trifluoromethyl)benzamide] | > 27000 nM | 61 nM |  |  |  |  | Ki (human CB2 receptors; read-out: human CB2 (Ki)): 116 nM |
| Cn1c(C(C)(C)C)c/c(=N\C(=O)c2cc(C(F)(F)F)ccc2OCC(C)(C)O)n1CC1CC1 [Example 71, N-[(3E)-5-tert-butyl-2-(cyclopropylmethyl)-1-methyl-1,2-dihydro-3H-pyrazol-3-ylidene]-2-(2-hydroxy-2-methylpropoxy)-5-(trifluoromethyl)benzamide] |  | 8.5 nM | 38 nM | 4.7 h |  |  | EC50 (Rat CB1; Rat CB1 cyclase (EC50, nM)): 4280 nM; clearance [1]: 5 mL/min/kg; bioavailability [1]: 46% |
| Cn1c(C(C)(C)C)c/c(=N\C(=O)c2cccc(C(F)(F)F)c2F)n1CC1CC1 [A, reference compound] |  |  |  | 0.7 h | 10 mL/min/kg | 26% |  |
| CCCCn1/c(=N/C(=O)c2cc(C(F)(F)F)ccc2OCC(C)(C)OC)cc(C(C)(C)C)n1C [G, reference compound] |  |  |  | 1.5 h | 45 mL/min/kg | 5% |  |
| COc1ccc(C(F)(F)F)cc1C(=O)/N=c1\cc(C(C)(C)C)n(C)n1CC1CC1 [F, reference compound] |  |  |  | 2.1 h | 63.3 mL/min/kg | 11% |  |
| CC(C)Cn1/c(=N/C(=O)c2cccc(C(F)(F)F)c2F)cc(C(C)(C)C)n1C [C, reference compound] |  |  |  | 0.8 h | 26.7 mL/min/kg | 45% |  |
| Cn1c(C(C)(C)C)c/c(=N\C(=O)c2cc(C#N)ccc2OCC(C)(C)O)n1CC1CCC1 [Example 113, N-[(3E)-5-tert-butyl-2-(cyclobutylmethyl)-1-methyl-1,2-dihydro-3H-pyrazol-3-ylidene]-5-cyano-2-(2-hydroxy-2-methylpropoxy)benzamide] | > 27000 nM | 28 nM | 54 nM | 3.4 h |  |  | clearance [1]: 20 mL/min/kg; bioavailability [1]: 100% |
| C[C@@H](O)COc1ccc(C(F)(F)F)cc1C(=O)/N=c1\cc(C(C)(C)C)n(C)n1C[C@H]1CCCO1 [Example 91, N-{(3E)-5-tert-butyl-1-methyl-2-[(2R)-tetrahydrofuran-2-ylmethyl]-1,2-dihydro-3 H-pyrazol-3-ylidene}-2-{[(2R)-2-hydroxypropyl]oxy}-5-(trifluoromethyl)benzamide] | > 27000 nM | 18 nM | 38 nM | 2.5 h |  |  | clearance [1]: 31.7 mL/min/kg; bioavailability [1]: 33% |
| CCCCn1/c(=N/C(=O)c2cc(C(F)(F)F)ccc2Cl)cc(C(C)(C)C)n1C [D, reference compound] |  |  |  | 0.3 h | 56.7 mL/min/kg | 10% |  |
| CCCCCn1/c(=N/C(=O)c2cc(C(F)(F)F)ccc2OCC(C)(C)O)cc(C(C)(C)C)n1C [Example 99, N-[(3E)-5-tert-butyl-1-methyl-2-pentyl-1,2-dihydro-3H-pyrazol-3-ylidene]-2-(2-hydroxy-2-methylpropoxy)-5-(trifluoromethyl)benzamide] |  | 4.4 nM | 9.2 nM | 5.6 h |  |  | clearance [1]: 18.3 mL/min/kg; bioavailability [1]: 37% |
| CCCCn1/c(=N/C(=O)c2cc(C(F)(F)F)ccc2OC)cc(C(C)(C)C)n1C [E, reference compound] |  |  |  | 2.9 h | 33.3 mL/min/kg | 9% |  |
| Cn1c(C(C)(C)C)c/c(=N\C(=O)c2cc([N+](=O)[O-])ccc2OCC(C)(C)O)n1C[C@H]1CCCO1 [Example 121, N-{(3E)-5-tert-butyl-1-methyl-2-[(2R)-tetrahydrofuran-2-ylmethyl]-1,2-dihydro-3H-pyrazol-3-ylidene}-2-(2-hydroxy-2-methylpropoxy)-5-nitrobenzamide] | 4710 nM | 7.7 nM | 13 nM |  |  |  |  |
| CCCCCn1/c(=N/C(=O)c2cc(C#N)ccc2OCC(C)(C)O)cc(C(C)(C)C)n1C [Example 115, N-[(3E)-5-tert-butyl-1-methyl-2-pentyl-1,2-dihydro-3H-pyrazol-3-ylidene]-5-cyano-2-(2-hydroxy-2-methylpropoxy)benzamide] | > 27000 nM | 17 nM | 81 nM | 0.6 h |  |  | clearance [1]: 30 mL/min/kg; bioavailability [1]: 7% |
| Cn1c(C(C)(C)C)c/c(=N\C(=O)c2cc(C(F)(F)F)ccc2OCC(C)(C)C(=O)O)n1C[C@H]1CCCO1 [Example 124, 3-[2-[({(3E)-5-tert-butyl-1-methyl-2-[(2R)-tetrahydrofuran-2-ylmethyl]-1,2-dihydro-3H-pyrazol-3-ylidene}amino)carbonyl]-4-(trifluoromethyl)phenoxy]-2,2-dimethylpropanoic acid] | > 27000 nM | 43 nM |  |  |  |  | Ki (human CB2 receptors; read-out: human CB2 (Ki)): 185 nM |
| CCCCn1/c(=N/C(=O)c2cc(Cl)ccc2OC)cc(C(C)(C)C)n1C [B, reference compound] |  |  |  | 1.7 h | 40 mL/min/kg | 11% |  |
| Cn1c(C(C)(C)C)c/c(=N\C(=O)c2cc(C(F)(F)F)ccc2OCCCCS(C)(=O)=O)n1C[C@H]1CCCO1 [Example 83, N-{(3E)-5-tert-butyl-1-methyl-2-[(2R)-tetrahydrofuran-2-ylmethyl]-1,2-dihydro-3 H-pyrazol-3-ylidene}-2-[4-(methylsulfonyl)butoxy]-5-(trifluoromethyl)benzamide] |  | 305 nM | > 1000 nM |  |  |  |  |
| Cn1c(C(C)(C)C)c/c(=N\C(=O)c2cc(C(F)(F)F)ccc2OCC2CCSCC2)n1C[C@H]1CCCO1 [Example 80, N-{(3E)-5-tert-butyl-1-methyl-2-[(2R)-tetrahydrofuran-2-ylmethyl]-1,2-dihydro-3 H-pyrazol-3-ylidene}-2-(tetrahydro-2H-thiopyran-4-ylmethoxy)-5-(trifluoromethyl)benzamide] |  | 75 nM |  |  |  |  | Ki (human CB2 receptors; read-out: human CB2 (Ki)): 126 nM |
| CC(C)(O)COc1ccc(C(F)(F)F)cc1C(=O)/N=c1\sc(C(C)(C)C)nn1CC1CCO1 (centres unmarked) [Example 96, N-[(2Z)-5-tert-butyl-3-(oxetan-2-ylmethyl)-1,3,4-thiadiazol-2(3H)-ylidene]-2-(2-hydroxy-2-methylpropoxy)-5-(trifluoromethyl)benzamide] |  | 6.1 nM | 9.4 nM |  |  |  |  |
